Test results published in PMC9079742, “Branched copolymer-stabilised nanoemulsions as new candidate oral drug delivery systems” (RSC Advances, 2018).
In brackets after ≈: the same amount, converted by molar mass.

Columns and labels:
[1] = Drug solubility in natural oils; assay type: physicochemical; conditions: oil or lipid
[2] = Caco-2 transcellular permeation model (transwell); assay type: in vitro ADME, human; conditions: human, Caco-2; for Papp A→B at 2 h, 10 μM / Papp B→A at 2 h, 10 μM: aq/DMSO solution or castor oil nanoemulsion, N=4
Experimental: (§1) The apparent permeability (Papp) of the candidate drug-loaded nanoemulsions were determined using the Caco-2 cells after forming a confluent monolayer, with tight junctions between the cells (confirmed by TEER), on a porous transwell membrane; this is a widely-used model for oral absorption.[34] Within this assay, the cells polarise to present microvilli on the gut (apical; A) side of the cells,[35] reproducing the morphology and function of the small intestine. The blood (basolateral; B) side of the cells models the interface with the systemic circulation. […]
(§2) droplets were below 300 nm in diameter.
(§3) During the 2 minutes, the vial was […]
(§4) to achieve a creamy emulsion. […]
(§5) Caco-2 Transcellular Permeation Model
(§6) After this time, culture media was […]
(§7) and immediately frozen at -40°C for subsequent batch analysis via HPLC. Sink conditions were determined as being satisfied when <10% of starting concentration had permeated. Papp was determined with the following equation: […]
(§8) Where A is the concentration in the sample, T is the time in seconds at which the sample was collected, V is the total volume of sample contained in the chamber being sampled, S is the initial starting concentration of the drug and 0.3 is the surface area in cm2 of the transwell insert on which the Caco-2 […]
(§9) High Performance Liquid Chromatography
(§10) 200 μL of sample (thawed from -40°C storage) was added to 1 ml of HPLC grade acetonitrile in a universal tube and vortexed for 30 seconds. The universal tubes where then centrifuged for 5 minutes at 4°C at 13,300 rpm, after which the supernatant was transferred to fresh glass tubes. These tubes were placed in a vacuum centrifuge drier and heated to 35°C to remove excess acetonitrile and dry down the sample to a pellet. Pellets were then re-suspended in 200 μL fresh 20% HPLC grade acetonitrile, 80% HPLC grade water, and transferred to 1.8 ml HPLC vials and sealed for HPLC analysis.
(§11) The mobile phase (C) consisted of 95% water and 5% acetonitrile, with 5mM final concentration of ammonium formate. The elution buffer (D) consisted of 90% acetonitrile and 10% water with no ammonium formate. A calibration curve was produced using a 1:2 dilution from 20,000 ng/ml to 39 ng/ml, with separate quality control samples at 600 ng/ml, 3000 ng/ml and 15,000 ng/ml. The initial starting conditions of each run were 100% C, changing to 92% D / 8% C after 30 seconds, holding at this percentage for 5 minutes before raising to 100% D for 1 minute. The final 2 minutes of the run returned the column to 100% of C, ready for the injection of the next sample. The EFV was eluted at around 4.3 minutes into the run. The lower limit of quantification was 78 ng/mL, with intraday variability <20% and inter day variability <15%. […]
(§12) Plates were incubated for 5 days at 37°C and 5%
(§13) CO2. Activity of both aqueous and nanoformulations against HIV-1 IIIB was determined by quantifying the amount of live cells in each condition by means of an MTT cell viability assay. Concentrations of […]
(§14) was due solely to HIV infection.

Caco-2 monolayers = experiment: Caco-2 transcellular permeation model (transwell); assay type: in vitro ADME, human
Experimental: as §1, §2, §3, §4, §5, §6, §7, §8, §9, §10, §11, §12, §13, §14

HIV-1 IIIB = experiment: Antiviral activity assay (MTT viability of infected MT4 cells); assay type: cell-based; conditions: Human immunodeficiency virus 1, 120 h, HIV-1 IIIB-infected MT4 cells, 5 days incubation, N = 4
Description: The potential ability to enhance the oral permeability of the antiretroviral drugs LPV and EFV may lead to increased drug absorption and a subsequent decrease in oral dose required to treat HIV patients. Drug permeation through the gut model employed here provides no information about whether free drug or intact nanoemulsions have traversed the epithelium. The potential for nanoemulsions entering the systemic circulation after in vivo absorption necessitates assessment of antiviral activity of the ARV-containing droplets and this was undertaken using HIV-1 IIIB-infected MT4 cells. […] Activity against the virus was determined by using an MTT cell viability assay to assess the number of live cells as viral replication leads to cell death.
Fig. 4 Antiviral activity of aqueous (circles) and nanoemulsion (triangles) formulations containing (A) EFV; and (B) LPV after 5 days incubation with MT4 cells and HIV-1 IIIB. Viral kill was derived by using MTT assay to quantify the metabolic activity of the MT4 cells, using this a proxy of cellular viability. […] Data expressed as ± SEM, N = 4. […]
as §7

MTT cytotoxicity assay = assay type: cell-based; conditions: human, Caco-2 cells, aqueous/DMSO solution

Permeation in emulsion form relative to control within aqueous DMSO vehicle (Caco-2 monolayers; human, Caco-2, 2 h, 10 μM)	Structure (SMILES)	solubility ([1]; in castor oil) [mg/mL]	solubility ([1]; in peanut oil) [mg/mL]	solubility ([1]; in soybean oil) [mg/mL]	efflux ratio at 1 h [2]	efflux ratio at 2 h [2]	Papp A→B at 2 h, 10 μM [2] [×10⁻⁶ cm/s]	Papp B→A at 2 h, 10 μM [2] [×10⁻⁶ cm/s]	IC50 (HIV-1 IIIB) [nM]	CC50 (MTT cytotoxicity assay) [µM]	Difference in permeation, emulsion form versus aqueous DMSO control (Caco-2 monolayers; Caco-2)
approximately 10 fold	Cc1cccc(C)c1OCC(=O)N[C@@H](Cc1ccccc1)[C@@H](O)C[C@H](Cc1ccccc1)NC(=O)[C@H](C(C)C)N1CCCNC1=O [LPV, lopinavir]	~25 (≈ 39.8 mM)	< 12	< 12	1.11	4.78	2.7	12.9	460	–	–
–	O=C1Nc2ccc(Cl)cc2[C@@](C#CC2CC2)(C(F)(F)F)O1 [EFV, efavirenz]	≥ 50	≥ 50	≥ 50	3.98	3.11	8.21	25.5	~1250	55	very limited difference
